# Measurements as given in patent US4020150A (priority 1974, dated 1977).
# Legend:
# burn wounds = settings: burn therapy; cited from earlier work
# [1] = cited from earlier work
# Walker tumor [2] = settings: rat, in vivo; cited from earlier work
# Walker tumor [3] = settings: cited from earlier work
# [4] = in water; cited from earlier work
# tumors = settings: by itself; cited from earlier work
# P. berghei = settings: high doses of PABA, protocol of Rollo
# [5] = tested on: Yoshidia sarcoma and other tumors; settings: Connors et al.; cited from earlier work
compound,measurement,setting,value
Nc1ccc(S(=O)(=O)Nc2ncccn2)cc1 [sodium sulfadiazine],reaction with body fluids / consumption,burn wounds,would be used up rapidly and none would be left after a few days
same,solubility,[1]; water-soluble,water-soluble
N[C@@H](Cc1ccc(N(CCCl)CCCl)cc1)C(=O)O [melphalan],ratio of concentration between the Walker tumor and the liver,Walker tumor [2],1:5
same,effectiveness against the tumor,Walker tumor [3],very effective against the tumor
Nc1ccc(S(=O)(=O)Nc2cnccn2)cc1 [sulfapyrazine],selective deposition/concentration in Walker tumor,Walker tumor [2],selectively deposited in the tumor regions
same,pKa,[4],6.0
Nc1ccc(S(=O)(=O)Nc2ncccn2)cc1 [sulfadiazine],anti-tumor activity,tumors,not an anti-tumor agent
same,inhibition of activity by PABA,P. berghei,significantly inhibited by PABA
same,solubility of free acid,[1]; free acid,insoluble as a free acid
same,solubility when ionized,[1]; ionized,very soluble when ionized
Nc1ccc(S(=O)(=O)Nc2nccs2)cc1 [sulfathiazole],selective concentration in other transplanted animal tumors,[5],do not concentrate selectively in these tumors
same,pKa,[4],7.1
